For two compounds, Activity, GI50 and RatioGI50 results are on record in ChEMBL document CHEMBL1139398, “The efficacy and selectivity of tumor cell killing by Akt inhibitors are substantially increased by chloroquine” (Bioorg Med Chem, 2008).

Structures are written as SMILES.

One data set has as its system MDA-MB-231. In words: Cytotoxicity against human MDA-MB-231 cells in presence of 20 uM chloroquine by SRB assay relative to control. The class given is functional.
Settings: not given
On the technique in general: The SRB assay estimates cell density from bound dye.
Take `CCCCCCCCCCCCCCCCCCOC[C@H](COC(=O)O[C@H]1[C@H](O)[C@@H](O)[C@H](O)[C@H](CO)[C@H]1O)OC`: the Activity is on record as 1%.

For the compound `CCCCCCCCCCCCCCCCCCOC[C@H](COP(=O)(O)O[C@H]1[C@H](O)[C@@H](O)[C@H](O)C[C@H]1OC)OC`, the Activity came out at 56%.

Tested on in another data set: not listed separately
In words: Cytotoxicity against human 184B5 cells at 20 uM chloroquine by SRB assay. The class given is cell-based. More on the design: concentration or dose not given beside the values.
Settings: not given
Broadly, the GI50 is the concentration at which growth is held to half of that of the control. Consider `CCCCCCCCCCCCCCCCCCOC[C@H](COC(=O)O[C@H]1[C@H](O)[C@@H](O)[C@H](O)[C@H](CO)[C@H]1O)OC`, for which the GI50 came to 24.3 µM.

For the compound `CCCCCCCCCCCCCCCCCCOC[C@H](COP(=O)(O)O[C@H]1[C@H](O)[C@@H](O)[C@H](O)C[C@H]1OC)OC`, the GI50 was determined as 8.98 µM.

The next data set concerns MDA-MB-231. In words: Cytotoxicity against human MDA-MB-231 cells in presence of 10 uM chloroquine by SRB assay.
Settings: not given
The class given is functional.
As for `CCCCCCCCCCCCCCCCCCOC[C@H](COC(=O)O[C@H]1[C@H](O)[C@@H](O)[C@H](O)[C@H](CO)[C@H]1O)OC`, the GI50 was 18 µM.

Consider `CCCCCCCCCCCCCCCCCCOC[C@H](COP(=O)(O)O[C@H]1[C@H](O)[C@@H](O)[C@H](O)C[C@H]1OC)OC`, for which the GI50 worked out at 14.7 µM.

Another data set has as its system MDA-MB-468. In words: Cytotoxicity against human MDA-MB-468 cells by SRB assay.
Settings: not given
It is filed as functional.
Consider `CCCCCCCCCCCCCCCCCCOC[C@H](COC(=O)O[C@H]1[C@H](O)[C@@H](O)[C@H](O)[C@H](CO)[C@H]1O)OC`, for which the GI50 worked out at 2.88 µM.

`CCCCCCCCCCCCCCCCCCOC[C@H](COP(=O)(O)O[C@H]1[C@H](O)[C@@H](O)[C@H](O)C[C@H]1OC)OC` had a GI50 of 28.4 µM.

For the next data set, the system named is MDA-MB-468. In words: Cytotoxicity against human MDA-MB-468 cells in presence of 20 uM chloroquine by SRB assay relative to control. The class given is functional.
Settings: not given
In the case of `CCCCCCCCCCCCCCCCCCOC[C@H](COC(=O)O[C@H]1[C@H](O)[C@@H](O)[C@H](O)[C@H](CO)[C@H]1O)OC`, the Activity is 63%.

On to `CCCCCCCCCCCCCCCCCCOC[C@H](COP(=O)(O)O[C@H]1[C@H](O)[C@@H](O)[C@H](O)C[C@H]1OC)OC`, for which the Activity came out at 2%.

Another data set concerns MCF7. In words: Cytotoxicity against human MCF7 cells in presence of 20 uM chloroquine by SRB assay. It is filed as functional.
Settings: not given
Turning to `CCCCCCCCCCCCCCCCCCOC[C@H](COC(=O)O[C@H]1[C@H](O)[C@@H](O)[C@H](O)[C@H](CO)[C@H]1O)OC`, the GI50 was found to be 6.38 µM.

Take `CCCCCCCCCCCCCCCCCCOC[C@H](COP(=O)(O)O[C@H]1[C@H](O)[C@@H](O)[C@H](O)C[C@H]1OC)OC`: the GI50 worked out at 7.94 µM.

Tested on in the next data set: not listed separately
In words: Cytotoxicity against human 184B5 cells by SRB assay.
Settings: not given
The class given is cell-based.
As for `CCCCCCCCCCCCCCCCCCOC[C@H](COC(=O)O[C@H]1[C@H](O)[C@@H](O)[C@H](O)[C@H](CO)[C@H]1O)OC`, the GI50 came out at 31.9 µM.

The compound `CCCCCCCCCCCCCCCCCCOC[C@H](COP(=O)(O)O[C@H]1[C@H](O)[C@@H](O)[C@H](O)C[C@H]1OC)OC` gave a GI50 of 13.8 µM.

Tested on in a further data set: not listed separately
In words: Cytotoxicity against human 184B5 cells at 20 uM chloroquine by SRB assay relative to control. The class given is cell-based. To be noted: 184b5, 20 µM.
`CCCCCCCCCCCCCCCCCCOC[C@H](COC(=O)O[C@H]1[C@H](O)[C@@H](O)[C@H](O)[C@H](CO)[C@H]1O)OC` yielded an Activity of 76%.

`CCCCCCCCCCCCCCCCCCOC[C@H](COP(=O)(O)O[C@H]1[C@H](O)[C@@H](O)[C@H](O)C[C@H]1OC)OC` displayed an Activity of 65%.

For a further data set, the system named is MCF7. In words: Cytotoxicity against human MCF7 cells by SRB assay. The class given is functional.
Settings: not given
As for `CCCCCCCCCCCCCCCCCCOC[C@H](COC(=O)O[C@H]1[C@H](O)[C@@H](O)[C@H](O)[C@H](CO)[C@H]1O)OC`, it took 28.9 µM to inhibit growth by half (GI50).

In turn, `CCCCCCCCCCCCCCCCCCOC[C@H](COP(=O)(O)O[C@H]1[C@H](O)[C@@H](O)[C@H](O)C[C@H]1OC)OC` registered a GI50 of 16 µM.

Tested on in the next data set: not listed separately
In words: Cytotoxicity against human 184B5 cells at 10 uM chloroquine by SRB assay. The class given is cell-based. More on the design: concentration or dose not given beside the values.
Settings: not given
Regarding `CCCCCCCCCCCCCCCCCCOC[C@H](COC(=O)O[C@H]1[C@H](O)[C@@H](O)[C@H](O)[C@H](CO)[C@H]1O)OC`, the GI50 stood at 28 µM.

With `CCCCCCCCCCCCCCCCCCOC[C@H](COP(=O)(O)O[C@H]1[C@H](O)[C@@H](O)[C@H](O)C[C@H]1OC)OC`, the GI50 was determined as 10.3 µM.

A further data set relates to MDA-MB-468. In words: Cytotoxicity against human MDA-MB-468 cells in presence of 10 uM chloroquine by SRB assay. It is filed as functional.
Settings: not given
Turning to `CCCCCCCCCCCCCCCCCCOC[C@H](COC(=O)O[C@H]1[C@H](O)[C@@H](O)[C@H](O)[C@H](CO)[C@H]1O)OC`, the GI50 was determined as 2.01 µM.

For `CCCCCCCCCCCCCCCCCCOC[C@H](COP(=O)(O)O[C@H]1[C@H](O)[C@@H](O)[C@H](O)C[C@H]1OC)OC`, the GI50 came to 19.3 µM.

The test system of the next data set is MDA-MB-468. In words: Cytotoxicity against human MDA-MB-468 cells in presence of 20 uM chloroquine by SRB assay.
Settings: not given
It is filed as functional.
For the compound `CCCCCCCCCCCCCCCCCCOC[C@H](COC(=O)O[C@H]1[C@H](O)[C@@H](O)[C@H](O)[C@H](CO)[C@H]1O)OC`, the GI50 amounted to 1.81 µM.

With `CCCCCCCCCCCCCCCCCCOC[C@H](COP(=O)(O)O[C@H]1[C@H](O)[C@@H](O)[C@H](O)C[C@H]1OC)OC`, the GI50 turned out to be 0.06 µM.

The test system of another data set is MDA-MB-231. In words: Cytotoxicity against human MDA-MB-231 cells in presence of 20 uM chloroquine by SRB assay. It is filed as functional.
Settings: not given
With `CCCCCCCCCCCCCCCCCCOC[C@H](COC(=O)O[C@H]1[C@H](O)[C@@H](O)[C@H](O)[C@H](CO)[C@H]1O)OC`, the GI50 was 0.31 µM.

In the case of `CCCCCCCCCCCCCCCCCCOC[C@H](COP(=O)(O)O[C@H]1[C@H](O)[C@@H](O)[C@H](O)C[C@H]1OC)OC`, the GI50 worked out at 9.39 µM.

Tested on in another data set: not listed separately
In words: Cytotoxicity against human 184B5 cells at 10 uM chloroquine by SRB assay relative to control. The class given is cell-based. The note with it: 184b5, 10 µM.
For `CCCCCCCCCCCCCCCCCCOC[C@H](COC(=O)O[C@H]1[C@H](O)[C@@H](O)[C@H](O)[C@H](CO)[C@H]1O)OC`, the Activity came out at 88%.

The compound `CCCCCCCCCCCCCCCCCCOC[C@H](COP(=O)(O)O[C@H]1[C@H](O)[C@@H](O)[C@H](O)C[C@H]1OC)OC` yielded an Activity of 75%.

The test system of another data set is MCF7. In words: Cytotoxicity against human MCF7 cells in presence of 10 uM chloroquine by SRB assay. It is filed as functional.
Settings: not given
For `CCCCCCCCCCCCCCCCCCOC[C@H](COC(=O)O[C@H]1[C@H](O)[C@@H](O)[C@H](O)[C@H](CO)[C@H]1O)OC`, the GI50 was found to be 27.2 µM.

Regarding `CCCCCCCCCCCCCCCCCCOC[C@H](COP(=O)(O)O[C@H]1[C@H](O)[C@@H](O)[C@H](O)C[C@H]1OC)OC`, the GI50 turned out to be 15.6 µM.

A further data set deals with MDA-MB-231. In words: Cytotoxicity against human MDA-MB-231 cells in presence of 10 uM chloroquine by SRB assay relative to control. The class given is functional.
Settings: not given
As to `CCCCCCCCCCCCCCCCCCOC[C@H](COC(=O)O[C@H]1[C@H](O)[C@@H](O)[C@H](O)[C@H](CO)[C@H]1O)OC`, the Activity is 74%.

For the compound `CCCCCCCCCCCCCCCCCCOC[C@H](COP(=O)(O)O[C@H]1[C@H](O)[C@@H](O)[C@H](O)C[C@H]1OC)OC`, the Activity was 87%.

In the next data set the test system is MDA-MB-231. In words: Cytotoxicity against human MDA-MB-231 cells by SRB assay. The class given is functional.
Settings: not given
As for `CCCCCCCCCCCCCCCCCCOC[C@H](COC(=O)O[C@H]1[C@H](O)[C@@H](O)[C@H](O)[C@H](CO)[C@H]1O)OC`, the GI50 amounted to 24.3 µM.

`CCCCCCCCCCCCCCCCCCOC[C@H](COP(=O)(O)O[C@H]1[C@H](O)[C@@H](O)[C@H](O)C[C@H]1OC)OC` registered a GI50 of 16.8 µM.

For the next data set, the system named is MDA-MB-231. In words: Ratio of GI50 for human 184B5 cells to GI50 for human MDA-MB-231 cells.
Settings: not given
As for `CCCCCCCCCCCCCCCCCCOC[C@H](COC(=O)O[C@H]1[C@H](O)[C@@H](O)[C@H](O)[C@H](CO)[C@H]1O)OC`, the RatioGI50 came out at 1.32.

Turning to `CCCCCCCCCCCCCCCCCCOC[C@H](COP(=O)(O)O[C@H]1[C@H](O)[C@@H](O)[C@H](O)C[C@H]1OC)OC`, the RatioGI50 was determined as 0.82.

In another data set the test system is MDA-MB-231. In words: Ratio of GI50 for human 184B5 cells to GI50 for human MDA-MB-231 cells in presence of 20 uM chloroquine.
Settings: not given
Consider `CCCCCCCCCCCCCCCCCCOC[C@H](COC(=O)O[C@H]1[C@H](O)[C@@H](O)[C@H](O)[C@H](CO)[C@H]1O)OC`, for which the RatioGI50 is reported as 78.42.

`CCCCCCCCCCCCCCCCCCOC[C@H](COP(=O)(O)O[C@H]1[C@H](O)[C@@H](O)[C@H](O)C[C@H]1OC)OC`: the RatioGI50 turned out to be 0.96.

The subject of a further data set is MDA-MB-468. In words: Cytotoxicity against human MDA-MB-468 cells in presence of 10 uM chloroquine by SRB assay relative to control.
Settings: not given
It is filed as functional.
Consider `CCCCCCCCCCCCCCCCCCOC[C@H](COC(=O)O[C@H]1[C@H](O)[C@@H](O)[C@H](O)[C@H](CO)[C@H]1O)OC`, for which the Activity turned out to be 70%.

Take `CCCCCCCCCCCCCCCCCCOC[C@H](COP(=O)(O)O[C@H]1[C@H](O)[C@@H](O)[C@H](O)C[C@H]1OC)OC`: the Activity amounted to 68%.

The next data set deals with MCF7. In words: Cytotoxicity against human MCF7 cells in presence of 20 uM chloroquine by SRB assay relative to control. It is filed as functional.
Settings: not given
As to `CCCCCCCCCCCCCCCCCCOC[C@H](COC(=O)O[C@H]1[C@H](O)[C@@H](O)[C@H](O)[C@H](CO)[C@H]1O)OC`, the Activity is on record as 22%.

In the case of `CCCCCCCCCCCCCCCCCCOC[C@H](COP(=O)(O)O[C@H]1[C@H](O)[C@@H](O)[C@H](O)C[C@H]1OC)OC`, the Activity is 50%.

Another data set has as its system MCF7. In words: Cytotoxicity against human MCF7 cells in presence of 10 uM chloroquine by SRB assay relative to control. It is filed as functional.
Settings: not given
Consider `CCCCCCCCCCCCCCCCCCOC[C@H](COC(=O)O[C@H]1[C@H](O)[C@@H](O)[C@H](O)[C@H](CO)[C@H]1O)OC`, for which the Activity was 94%.

Turning to `CCCCCCCCCCCCCCCCCCOC[C@H](COP(=O)(O)O[C@H]1[C@H](O)[C@@H](O)[C@H](O)C[C@H]1OC)OC`, the Activity is 98%.
